Test systems include CCRF-CEM leukemia; PC-3 prostate; A498 renal; SF-295 CNS; SK-MEL-28 melanoma; NCI-H226 lung; MDA-MB-231 breast; HCC-2998 colon; SW-620 colon; RXF 393 renal; UACC-257 melanoma; NCI/ADR-RES ovarian.
Common to all, as to assay: DTP human tumour cell line panel, 48 h

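Protocol summary: plate cells (96-well), add compound at 5 concentrations, incubate 48 h, interpolate endpoints linearly. At the TGI there is no net growth.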 Where a SMILES comes first, the peptide text is derived from it. Where only a bound is given, the exact number is not on record here.

`O=S(=O)(c1cc(Cl)ccc1Cl)N1CCN(c2cccc(Cl)c2)CC1`: the TGI with CCRF-CEM leukemia, in the test with PC-3 prostate, in the test on A498 renal, in the test on SF-295 CNS, in the test with SK-MEL-28 melanoma and in the test with NCI-H226 lung was more than 100 µM each time. Moreover, the total growth inhibition concentration (TGI) with MDA-MB-231 breast, with HCC-2998 colon, in the test on SW-620 colon, in the test with RXF 393 renal and in the test with UACC-257 melanoma was more than 100 µM each time.
Regarding `CCOc1cccc(-c2cc(=O)c3cc4c(cc3[nH]2)OCO4)c1`, the TGI in the test on PC-3 prostate is more than 100 µM; in the test on A498 renal, more than 100 µM; with SF-295 CNS it was 0.329 µM; in the test with SK-MEL-28 melanoma, more than 100 µM; in the test on NCI/ADR-RES ovarian it was 0.294 µM; with NCI-H226 lung it was 15.1 µM. Also, the concentration for total growth inhibition (TGI) in the test with HCC-2998 colon is 0.695 µM; with SW-620 colon, more than 100 µM; in the test on RXF 393 renal it was 1.82 µM; with UACC-257 melanoma, more than 100 µM.
For the compound `S=C1CC(c2ccccc2)Sc2cc(Cl)ccc2N1` (stereo unspecified), the TGI was 9.33 µM in the test on CCRF-CEM leukemia; more than 100 µM in the test on PC-3 prostate; 12.6 µM in the test with SF-295 CNS; 51.8 µM with SK-MEL-28 melanoma; 30.5 µM with NCI/ADR-RES ovarian; 32.7 µM in the test on NCI-H226 lung. The TGI with MDA-MB-231 breast is 20.7 µM; with RXF 393 renal, 18.1 µM; in the test on UACC-257 melanoma it was more than 100 µM.
For the compound `Cc1cc(S(=O)(=O)NC(=NCCc2ccccc2)NN)c(S)cc1Cl`, the TGI was 90.1 µM with CCRF-CEM leukemia; more than 100 µM with PC-3 prostate; 71.3 µM in the test with SK-MEL-28 melanoma; 57.8 µM in the test on NCI/ADR-RES ovarian; 66.3 µM with NCI-H226 lung; more than 100 µM with MDA-MB-231 breast. Further, the TGI is 50.6 µM in the test on HCC-2998 colon, 82.5 µM in the test on SW-620 colon, 64.7 µM in the test with RXF 393 renal and more than 100 µM in the test on UACC-257 melanoma.
Regarding `Cc1ccc(C(=O)N/N=C(\N=Nc2ccccc2Cl)c2ccc(N(C)C)cc2)cc1`, the TGI in the test with CCRF-CEM leukemia, in the test on PC-3 prostate, with SF-295 CNS, in the test with SK-MEL-28 melanoma, in the test on NCI/ADR-RES ovarian and with NCI-H226 lung was more than 100 µM each time. Also, the TGI in the test on MDA-MB-231 breast, in the test with HCC-2998 colon, with SW-620 colon and with UACC-257 melanoma was more than 100 µM in each case.
Turning to `C=CCCCC1(C)CCNC1=S` (stereo unspecified), the concentration for total growth inhibition (TGI) with PC-3 prostate, in the test with A498 renal, with SF-295 CNS, in the test with SK-MEL-28 melanoma, in the test with MDA-MB-231 breast and in the test on HCC-2998 colon was more than 100 µM throughout. The TGI with SW-620 colon, with RXF 393 renal and with UACC-257 melanoma was more than 100 µM each time.
`CC1=CC(=O)N(n2c(-c3ccccc3)n[nH]c2=O)C1=O`: the TGI with CCRF-CEM leukemia, with PC-3 prostate, in the test on SF-295 CNS, with SK-MEL-28 melanoma, in the test with NCI/ADR-RES ovarian and with NCI-H226 lung was more than 100 µM in each case. Further, the TGI in the test on MDA-MB-231 breast, in the test with HCC-2998 colon, with SW-620 colon, in the test with RXF 393 renal and in the test on UACC-257 melanoma was more than 100 µM each time.
As to `CCCCC1(O)CC2CC1C(C)C2(C)C` (stereo unspecified), the TGI with CCRF-CEM leukemia, in the test on PC-3 prostate, in the test on SF-295 CNS, in the test with SK-MEL-28 melanoma, with NCI/ADR-RES ovarian and with NCI-H226 lung was more than 100 µM in each case. Also, the TGI with MDA-MB-231 breast, in the test on HCC-2998 colon, with SW-620 colon, with RXF 393 renal and with UACC-257 melanoma was more than 100 µM throughout.
On to `C=CC1(c2ccc3ccccc3c2)OCC(CC)O1` (stereo unspecified), for which the TGI in the test on CCRF-CEM leukemia is 73.7 µM; in the test with PC-3 prostate, more than 100 µM; in the test with SF-295 CNS it was more than 100 µM; in the test with SK-MEL-28 melanoma, more than 100 µM; with NCI/ADR-RES ovarian, more than 100 µM; in the test on NCI-H226 lung it was 81.4 µM. The total growth inhibition concentration (TGI) was 0.469 µM in the test with MDA-MB-231 breast; more than 100 µM in the test with HCC-2998 colon; more than 100 µM with SW-620 colon; more than 100 µM in the test with RXF 393 renal; more than 100 µM in the test on UACC-257 melanoma.
With `Nc1cc(Cl)ccc1SSc1ccc(Cl)cc1N`, the TGI was more than 100 µM in the test with CCRF-CEM leukemia; 48.4 µM in the test on PC-3 prostate; 25.6 µM with SF-295 CNS; 40.6 µM with SK-MEL-28 melanoma; 30.4 µM with NCI/ADR-RES ovarian; 15.4 µM with NCI-H226 lung. The concentration for total growth inhibition (TGI) in the test with MDA-MB-231 breast was 20.3 µM; in the test with SW-620 colon, 15 µM; with RXF 393 renal, more than 100 µM; with UACC-257 melanoma, 41.5 µM.
`CCOC(=O)N/N=C(\CC)OCC`: the total growth inhibition concentration (TGI) with CCRF-CEM leukemia, in the test on PC-3 prostate, with SF-295 CNS, in the test on NCI/ADR-RES ovarian, in the test on MDA-MB-231 breast and with HCC-2998 colon was more than 100 µM in each case. The TGI in the test on RXF 393 renal and in the test with UACC-257 melanoma was more than 100 µM each time.
With `CCOC(=O)C(NC(=O)CC)(Nc1ccc(F)cc1F)C(F)(F)F` (stereo unspecified), the TGI in the test with CCRF-CEM leukemia, in the test on PC-3 prostate, with A498 renal, in the test with SK-MEL-28 melanoma, in the test on NCI/ADR-RES ovarian and with HCC-2998 colon was more than 100 µM each time. Also, the TGI in the test with SW-620 colon, in the test on RXF 393 renal and in the test with UACC-257 melanoma was more than 100 µM each time.
Consider `Cc1ccc(C(=O)Oc2ccc(/C=C3\CCC/C(=C\c4ccc(OC(=O)c5ccc(C)cc5)cc4)C3=O)cc2)cc1`, for which the TGI in the test on CCRF-CEM leukemia, in the test with PC-3 prostate, in the test with SF-295 CNS, in the test with SK-MEL-28 melanoma, in the test with NCI/ADR-RES ovarian and with MDA-MB-231 breast was more than 100 µM each time. The TGI with HCC-2998 colon, in the test with SW-620 colon and in the test with UACC-257 melanoma was more than 100 µM each time.
On to `Cc1ccccc1Nc1nc(NNC(=O)Cc2ccccc2)nc(NNC(=O)c2ccncc2)n1`, for which the TGI in the test on CCRF-CEM leukemia, with SK-MEL-28 melanoma, in the test with NCI/ADR-RES ovarian, in the test on MDA-MB-231 breast, in the test with HCC-2998 colon and in the test on UACC-257 melanoma was more than 10 µM in each case.
Take `COc1cc(C2c3cc4c(cc3OC(NCCO)C2C)OCO4)cc(OC)c1O` (stereo unspecified): the TGI with PC-3 prostate was more than 100 µM; with SF-295 CNS, more than 100 µM; in the test with SK-MEL-28 melanoma it was more than 100 µM; in the test on NCI-H226 lung, more than 100 µM; in the test on MDA-MB-231 breast, more than 100 µM; in the test with HCC-2998 colon, 21.8 µM. For the same compound, the total growth inhibition concentration (TGI) with SW-620 colon and in the test with RXF 393 renal was more than 100 µM in each case.
Regarding `CCC(C)C(NC(=O)C(CC(C)C)NC(=O)CNC(=O)C(NC(=O)C1CCCN1C(=O)C(CC(C)C)NC(=O)C(N)Cc1ccccc1)C(C)CC)C(=O)NC(CC(C)C)C(N)=O` (stereo unspecified) (H-FLPIGLIL-NH2; configuration not given here), the TGI in the test with CCRF-CEM leukemia, in the test on PC-3 prostate, in the test on A498 renal, in the test on SF-295 CNS, with SK-MEL-28 melanoma and in the test with NCI/ADR-RES ovarian was more than 75 µM each time. For the same compound, the TGI with NCI-H226 lung, with MDA-MB-231 breast, in the test with SW-620 colon and with UACC-257 melanoma was more than 75 µM in each case.
`CCOC(=O)c1sc2nc1CSc1sc(=S)sc1SCc1nc(sc1C(=O)OCC)-c1nc(c(C(=O)OCC)s1)CSc1sc(=S)sc1SCc1nc-2sc1C(=O)OCC`: the concentration for total growth inhibition (TGI) in the test with CCRF-CEM leukemia, in the test with PC-3 prostate, in the test with SF-295 CNS, in the test with SK-MEL-28 melanoma, in the test with NCI/ADR-RES ovarian and in the test with MDA-MB-231 breast was more than 10 µM throughout. The TGI in the test with HCC-2998 colon, in the test with SW-620 colon, in the test with RXF 393 renal and in the test with UACC-257 melanoma was more than 10 µM in each case.
For the compound `O=c1[nH]c(=O)n(CCOc2ccc(Cl)cc2)cc1Nc1ccccc1`, the TGI with CCRF-CEM leukemia, with PC-3 prostate, in the test with A498 renal, in the test with SF-295 CNS, in the test with SK-MEL-28 melanoma and with NCI/ADR-RES ovarian was more than 100 µM in each case. Further, the TGI in the test on HCC-2998 colon, in the test on SW-620 colon, with RXF 393 renal and with UACC-257 melanoma was more than 100 µM each time.
As for `O=c1[nH]c2c(c(=O)[nH]1)C(c1ccc([N+](=O)[O-])cc1)c1c([nH]c(=O)[nH]c1=O)O2`, the concentration for total growth inhibition (TGI) in the test with CCRF-CEM leukemia was 90.5 µM; in the test on PC-3 prostate it was more than 100 µM; with A498 renal, more than 100 µM; in the test on SF-295 CNS, more than 100 µM; in the test on SK-MEL-28 melanoma, more than 100 µM; in the test with NCI-H226 lung, more than 100 µM. Moreover, the TGI with MDA-MB-231 breast, in the test on SW-620 colon, with RXF 393 renal and in the test on UACC-257 melanoma was more than 100 µM in each case.
With `Cc1cc(C)nc(NS(=O)(=O)c2ccc(NC(=O)NC(F)(F)F)cc2)n1`, the concentration for total growth inhibition (TGI) in the test on CCRF-CEM leukemia, in the test on PC-3 prostate, in the test with A498 renal, in the test with SK-MEL-28 melanoma, in the test on NCI/ADR-RES ovarian and in the test with HCC-2998 colon was more than 100 µM each time. Moreover, the TGI in the test on SW-620 colon, in the test on RXF 393 renal and with UACC-257 melanoma was more than 100 µM in each case.

As usually defined, the TGI is the concentration at which net growth stops.

These data come from PubChem BioAssay (NCI).
